Data taken from ChEMBL document CHEMBL5233262, “Anti-inflammatory activity of naturally occuring diarylheptanoids - A review” (Bioorg Med Chem, 2021).
Values after ≈ are worked out from the molar mass of the structure shown. Residues, ends and D or L forms follow the SMILES beside them. *: point of attachment. Cbz = O=C(OCc1ccccc1)*

How the values were obtained:
Mus musculus = assay: Antiinflammatory activity in ICR mouse model of TPA-induced ear edema assessed as inhibition of ear inflammation at 1 mg,TOP for 30 mins followed by TPA addition and measured after 6 hrs; assay type: functional; settings: time 390 min, 6.5 h
RAW264.7 [1] = assay: Antiinflammatory activity in mouse RAW264.7 cells assessed as inhibition of IFN-gamma and LPS-induced NO production incubated for 24 hrs by Griess assay; assay type: functional, cell-based; settings: RAW264.7, 24 h
RAW264.7 [2] = assay: Antiinflammatory activity against mouse RAW264.7 cells assessed as inhibition of IFN-gamma and LPS-induced COX2 production preincubated for 2 hrs followed by IFN-gamma and LPS stimulation and measured after 16 hrs by spectrophotometric analysis; assay type: functional, cell-based
[3] = Antiinflammatory activity in mouse N11 cells assessed as inhibition of LPS-induced TNFalpha level preincubated for 1 hrs followed by LPS stimulation and measured after 24 hrs by ELISA; assay type: functional, cell-based
RAW264.7 [4] = assay: Antiinflammatory activity in mouse RAW264.7 cells assessed as inhibition of LPS-induced NO production preincubated for 1 hrs followed by LPS stimulation and measured after 24 hrs by Griess method; assay type: functional, cell-based
RAW264.7 [5] = assay: Antiinflammatory activity in mouse RAW264.7 cells assessed as inhibition of LPS-induced TNFalpha level preincubated for 1 hrs followed by LPS stimulation and measured after 24 hrs by ELISA; assay type: functional, cell-based
[6] = Antiinflammatory activity in mouse N11 cells assessed as inhibition of LPS-induced NO production preincubated for 1 hrs followed by LPS stimulation and measured after 24 hrs by Griess method; assay type: functional, cell-based
[7] = Antioxidant activity assessed as […] radical scavenging activity at 50 uM; assay type: functional
Rattus norvegicus = assay: Antiinflammatory activity in rat model of carrageenan-induced paw edema assessed as reduction in paw thickness at 10 mg/kg,ip and measured after 4 hrs; assay type: functional; design: scale not given: the % may be the effect or the level left
RAW264.7 [8] = assay: Antiinflammatory activity in mouse RAW264.7 cells assessed as inhibition of LPS-induced NO production at 30 uM preincubated for 0.5 hrs followed by LPS stimulation and measured after 24 hrs by Griess reagent based analysis; assay type: functional; settings: time 24.5 hrs
RAW264.7 [9] = assay: Antiinflammatory activity in mouse RAW264.7 cells assessed as inhibition of LPS-induced NO production incubated for 18 hrs by Griess method; assay type: functional, cell-based; settings: RAW264.7, 18 h
J774.1 = assay: Antiinflammatory activity in mouse J774.1 cells assessed as inhibition of LPS-induced NO production incubated for 48 hrs by Griess reagent based analysis; assay type: functional, cell-based
[10] = Antioxidant activity assessed as ABTS radical scavenging activity measured after 6 mins; assay type: functional
RAW264.7 [11] = assay: Antiinflammatory activity in mouse RAW264.7 cells assessed as inhibition of LPS-induced NO production preincubated for 1 hrs followed by LPS stimulation and measured after 24 hrs by Griess reagent based spectrophotometrical method; assay type: functional, cell-based
RAW264.7 [12] = assay: Antiinflammatory activity in mouse RAW264.7 cells assessed as inhibition of LPS-induced NO production preincubated for 0.5 hrs followed by LPS stimulation and measured after 24 hrs by Griess reagent based analysis; assay type: functional, cell-based
RAW264.7 [13] = assay: Antiinflammatory activity in mouse RAW264.7 cells assessed as inhibition of LPS-induced NO production incubated for 20 hrs by Griess method; assay type: functional, cell-based; settings: RAW264.7, 20 h
RAW264.7 [14] = assay: Antiinflammatory activity in mouse RAW264.7 cells assessed as inhibition of LPS-induced NO production preincubated for 1 hrs followed by LPS stimulation and measured after 24 hrs by Griess reagent based analysis; assay type: functional, cell-based
[15] = Antioxidant activity assessed as nitroblue tetrazolium superoxide radical scavenging activity incubated for 10 mins by spectrophotometric analysis; assay type: functional
[16] = Antioxidant activity assessed as DPPH radical scavenging activity incubated for 30 mins by spectrophotometric analysis; assay type: functional
RAW264.7 [17] = assay: Antiinflammatory activity in mouse RAW264.7 cells assessed as inhibition of LPS-induced NO production for 24 hrs by Griess assay; assay type: functional, cell-based; settings: RAW264.7, 24 h
[18] = Inhibition of COX in bovine seminal vesicle assessed as reduction in PGE2 production using arachidonic acid as substrate; assay type: tissue-based, Bos taurus

OC[C@@]1(O)CO[C@@H](OC[C@H]2O[C@@H](O[C@@H]3CCCCc4ccc(O)c(c4)Oc4ccc(cc4)CC3)[C@H](O)[C@@H](O)[C@@H]2O)[C@@H]1O
ID50 (Mus musculus): 0.81 mg

OC[C@@]1(O)CO[C@@H](OC[C@H]2O[C@@H](O[C@H](CCCCc3ccc(O)c(O)c3)CCc3ccc(O)c(O)c3)[C@H](O)[C@@H](O)[C@@H]2O)[C@@H]1O
IC50 (RAW264.7 [1]): 49.4 µg/mL (≈ 78.8 µM) | IC50 (RAW264.7 [2]): 34.2 µg/mL (≈ 54.6 µM)

COc1ccc(C/C=C/CCCCc2cccc(O)c2)cc1
IC50 [3]: 29.6 µM | IC50 (RAW264.7 [4]): 47 µM | IC50 (RAW264.7 [5]): 9.9 µM | IC50 [6]: 44.2 µM

Oc1ccc2cc1Oc1ccc(cc1)CC[C@H](O)CCCC2 [ACEROGENIN A]
ID50 (Mus musculus): 0.32 mg

COc1c2cc(c(O)c1OC)CCCC[C@H](O)CCc1ccc(O)c-2c1
Activity [7]: 41% | Activity (Rattus norvegicus): 51.5%

OC[C@H]1O[C@@H](O[C@H](CCCCc2ccc(O)cc2)CCc2ccc(O)c(O)c2)[C@H](O)[C@@H](O)[C@@H]1O
inhibition at 30 µM (RAW264.7 [8]): 37%

Oc1ccc(CCCC[C@H](O)CCc2ccc(O)cc2)cc1
IC50 (RAW264.7 [9]): > 25 µM

COc1cc(O)c([C@@H]2C[C@H](CCc3ccc(O)cc3)O[C@@H](c3ccc(O)cc3)C2)c(O)c1C(=O)/C=C/c1ccc(O)cc1 [EPICALYXIN F]
IC50 (J774.1; Mus musculus, J774.1, 48 h): 51 µM

COc1c2cc(c(O)c1OC)CCCCC(=O)CCc1ccc(O)c-2c1 [MYRICANONE]
Activity [7]: 41% | IC50 [10]: 19.6 µM | IC50 (RAW264.7 [11]): 1 µM | Activity (Rattus norvegicus): 49.6%

Oc1ccc(CCCC[C@H](CCc2ccc(O)cc2)O[C@@H]2OC[C@@H](O)[C@H](O)[C@H]2O)cc1
IC50 (RAW264.7 [12]): 63 µM

O=C(CCc1ccc(O)c(O)c1)C[C@H](CCc1ccc(O)c(O)c1)O[C@H]1OC[C@H](O)[C@@H](O)[C@@H]1OC(=O)c1ccccc1
IC50 (RAW264.7 [12]): 15.4 µM

Oc1ccc(CCCC[C@@H](O)CCc2ccc(O)c(O)c2)cc1O
IC50 (RAW264.7 [13]): 5.2 µM | IC50 (RAW264.7 [14]): 10.2 µM | IC50 (RAW264.7 [12]): 20 µM | IC50 (RAW264.7 [1]): 28.4 µg/mL (≈ 85.4 µM) | IC50 (RAW264.7 [2]): 45.3 µg/mL (≈ 136 µM) | IC50 [15]: 11.6 µM | IC50 [16]: 23.3 µM

COc1ccc(C/C=C/CCCCc2ccc(O)cc2)cc1
IC50 [3]: 29.6 µM | IC50 (RAW264.7 [4]): 47 µM | IC50 (RAW264.7 [5]): 29.6 µM | IC50 [6]: 63.2 µM

O=c1cc(-c2ccc(O)cc2)oc2cc(O)cc(O)c12 [APIGENIN]
IC50 [3]: 20 µM | IC50 [6]: 15 µM

O=C(CCc1ccc(O)c(O)c1)C[C@H](CCc1ccc(O)c(O)c1)O[C@H]1OC[C@H](O)[C@@H](O)[C@@H]1OC(=O)/C=C/c1ccc(O)cc1
IC50 (RAW264.7 [12]): 22 µM

Oc1ccc(CC[C@H]2C[C@@H](O)C[C@@H](c3ccc(O)c(O)c3)O2)cc1
IC50 (RAW264.7 [17]): 17.3 µM

COc1c2cc(c(O)c1OC)CCCC[C@@H](O)CCc1ccc(O)c-2c1
IC50 [10]: 22.3 µM | IC50 (RAW264.7 [11]): 7.5 µM

COc1cc(O)c([C@H](/C=C/C[C@@H](O)CCc2ccc(O)cc2)c2ccc(O)cc2)c2oc(-c3ccc(O)cc3)cc(=O)c12 (stereo in doubt; 111)
IC50 (J774.1; j774.1): 95 µM

O=C(CCc1ccc(O)c(O)c1)C[C@H](CCc1ccc(O)cc1)O[C@@H]1OC[C@@H](O)[C@H](O)[C@H]1O
IC50 (RAW264.7 [12]): 8.1 µM

CCCOC(=O)c1cc(O)c(O)c(O)c1
Activity [7]: 97%

CC(C)C[C@@H](C=O)NC(=O)[C@H](CC(C)C)NC(=O)[C@H](CC(C)C)NC(=O)OCc1ccccc1 [MG-132] (Cbz-Leu-Leu-Leu-aldehyde)
IC50 (RAW264.7 [9]): 0.1 µM

Oc1ccc(CC[C@@H](O)CCCCc2ccc(O)c(O)c2)cc1
IC50 (RAW264.7 [9]): 13.8 µM

COc1cc([C@@H]2O[C@H]([C@@H](O)Cc3ccc(O)cc3)C[C@@H](O)[C@@H]2O)ccc1O
IC50 (RAW264.7 [17]): > 100 µM

O=C1CCN(c2ccccc2)N1 [PHENIDONE]
IC50 [18]: 11.8 µM

OC[C@H]1O[C@@H](O[C@@H]2C[C@@H](CCc3ccc(O)cc3)O[C@@H](c3ccc(O)c(O)c3)C2)[C@H](O)[C@@H](O)[C@@H]1O
IC50 (RAW264.7 [17]): 79.9 µM

COc1c2cc(c(O[C@@H]3O[C@H](CO)[C@@H](O)[C@H](O)[C@H]3O)c1O)CCCCC(=O)CCc1ccc(OC(C)=O)c-2c1
Activity [7]: 41% | Activity (Rattus norvegicus): 46.3%
